Assay results as given in PMC3697084 (Methods in enzymology, 2010).

Target: T1, human red cone opsin (Homo sapiens, UniProt P04000)
T1 sequence (P04000 1-364): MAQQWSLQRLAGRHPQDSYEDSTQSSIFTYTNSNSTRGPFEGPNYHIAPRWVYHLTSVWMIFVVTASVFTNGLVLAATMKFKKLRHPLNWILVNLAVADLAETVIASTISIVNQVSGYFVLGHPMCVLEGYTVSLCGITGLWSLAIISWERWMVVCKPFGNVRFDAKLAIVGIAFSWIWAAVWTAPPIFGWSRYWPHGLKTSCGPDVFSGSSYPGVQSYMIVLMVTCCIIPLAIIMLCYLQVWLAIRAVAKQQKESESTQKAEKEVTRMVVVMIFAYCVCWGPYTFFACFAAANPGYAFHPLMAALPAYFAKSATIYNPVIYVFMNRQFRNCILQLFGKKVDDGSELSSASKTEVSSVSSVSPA
Test: radioactive GTPγS filter binding, transducin activation
Assay type: biochemical
Details: COS-1 membranes, bovine rod transducin, pH 6.4

CC(=O)/C=C/C1=C(C)CCCC1(C)C [β-ionone]
inverse agonist: these compounds were found to be inverse agonists to the red cone opsin
